{"source": "paper PMC7405012", "about": "“Detection of Chaetomium globosum, Ch. cochliodes and Ch. rectangulare during the Diversity Tracking of Mycotoxin-Producing Chaetomium-like Isolates Obtained in Buildings in Finland” (Toxins, 2020)", "key": {"resting boar spermatozoa [1]": {"test_system": "resting boar spermatozoa", "assay": "Plasma membrane integrity of resting spermatozoa (SMIDR), calcein-AM + PI", "type": "cell-based", "conditions": "Spermatozoa, 48 h; resting boar sperm, 24 °C, 2 days; read-out: EC50 Lethal Toxicity SMIDR 2 days", "description": "(§1) The long-term effects of exposure to chaetoglobosin A and to the chaetoglobosin-containing extracts of the Ch. globosum MTAV35 and MTAV37 strains were measured in resting sperm cells exposed at 24 °C for two days. Three criteria were assessed: (1) the motility inhibition of resting boar spermatozoa (BSMIR); (2) the change in mitochondrial membrane potential (ΔΨ) observed using the potentiometric dye JC-1; and (3) the plasma membrane integrity (SMIDR) observed using the viability stain calcein-AM + propidium iodide (PI). […] By contrast, the EC50 concentrations in the SMIDR assays, which measured the lethal damages in plasma membrane after incubation for two days, were >50 times higher (Figure 5 and Table 3).\n(§2) The boar sperm cells exposed for 2 days to commercial chaetoglobosin A and the crude extract of MTAV35 and MTAV37 were double-stained with the viability stains PI + calcein–AM, the SMIDR assay, as described earlier. The staining protocol was as follows: 200 μL of extended boar semen containing 27 × 10^6 sperm cells mL^−1 was mixed with 200 μL PBS containing 3 μg mL^−1 calcein-AM and 10 μg mL^−1 PI. The ΔΨm assay monitored the mitochondrial membrane potential changes (ΔΨm) by staining with the lipophilic potentiometric dye JC-1 as described by Mikkola et al. (2015). For the staining with JC-1 (35 µg mL^−1), 200 µL of the sperm cells were shaken and incubated at 37 °C for 5 min. After staining, the cells exposed in the SMIDR and the ΔΨm assays were inspected with fluorescence microscope using 400× magnification (Nikon Eclipse E600, Nikon Corporation, Tokyo Japan) with filters BP 450–490 nm/LP 520. The calcein–AM-stained cells with intact plasma membranes produced green fluorescence, whereas the PI-dyed cells with damaged plasma membranes produced red fluorescence. In JC-1 stained sperm cells, mitochondria with high membrane potential emitted yellow fluorescence, whereas depolarized mitochondria fluoresced green.\n(§3) The EC50 concentration in these microscopic assays was defined as the lowest concentration where the ratio of cells similar to those in the solvent control was less than 50%. This EC50 fitted between EC90 and EC10 observed in the microscope calculating ca. 100–120 sperm cells from three microscopic fields. The maximal difference between four parallel tests in each of the two methods was one dilution step. The assays were calibrated with triclosan."}, "resting boar spermatozoa [2]": {"test_system": "resting boar spermatozoa", "assay": "Mitochondrial membrane potential (ΔΨm) assay with JC-1 in resting spermatozoa", "type": "cell-based", "description": "as §1, with “Three” for “The long-term effects of exposure to chaetoglobosin A and to the chaetoglobosin-containing extracts of the Ch. globosum MTAV35 and MTAV37 strains were measured in resting sperm cells exposed at 24 °C for two days. Three”\nas §2, §3"}, "resting boar spermatozoa [3]": {"test_system": "resting boar spermatozoa", "assay": "Motility inhibition of resting boar spermatozoa (BSMIR)", "type": "cell-based", "conditions": "resting boar sperm, 24 °C, 2 days", "description": "as §1, with “Three” for “The long-term effects of exposure to chaetoglobosin A and to the chaetoglobosin-containing extracts of the Ch. globosum MTAV35 and MTAV37 strains were measured in resting sperm cells exposed at 24 °C for two days. Three”\nThe procedure for the BSMIR assay measuring sublethal toxicity as motility inhibition, i.e., inability to respond to induction of motility in resting sperm cells is described below: The ethanol solutions (0.5–10 μL) were dispensed in 2000 μL of extended boar semen (Figen Ltd., Tuomikylä, Finland, density of 27 × 10^6 sperms mL^−1) incubated at 24 °C, and motility of the sperms was inspected in the phase-contrast microscope (400× magnification) with a heated stage, (Olympus CKX41, Tokyo, Japan; magnification 400×) and an image recording software (Cellsense® standard version 11.0.06, Olympus Soft Imaging Solutions GmbH, Münster, Germany, 2012) as described previously. […] The EC50 was calculated from the equation of the straight line between EC50-40 and EC80-90: Y = −ΔY/ΔX × X + C where Y is the motility closest to 50% of the motility of the solvent control, X is the EC50 concentration and C is a constant between 100% and 60%. All tests were run in triplicates and differences between replicate tests were within one dilution step (2-fold). The sperm assays were calibrated with triclosan and valinomycin."}, "resting PK-15 cells": {"test_system": "resting PK-15 cells", "assay": "Mitochondrial damage test: accelerated glucose consumption and extracellular acidosis", "type": "cell-based, porcine", "description": "The mitochondria were depolarized in sperm cells exposed to sublethal concentrations of chaetoglobosin A (Figure 5) and to the chaetoglobosin-containing extracts (Table 3). This observation aroused the suspicion regarding mitochondrial toxicity. The mitochondrial toxicity of the extracts containing chaetoglobosin was assessed by measuring the accelerated glucose consumption in resting PK-15 cells. […] By contrast, the positive controls for mitochondrial toxicity—enniatin B, moniliformin and valinomycin at sublethal concentrations of 1.5, 4 and 5 ng mL^−1, respectively—promoted the acceleration of glycolysis.\nThe test for mitochondrial damage as indicated by accelerated glucose consumption and extracellular acidosis was described earlier. The PK-15 cells were grown in 8-well flat-bottom chamber glass slides, seeded to a density of 4 × 10^4 cells mL^−1, in the respective medium for 48 h. The twofold serially diluted test substances or the vehicle only was dispensed into the wells. The glucose content of the wells was measured by using a glucose meter (Precision Xceed; Abbott Diabetes Care Ltd., Berkshire, United Kingdom). In wells that received nothing or the vehicle only, the glucose concentration decreased from an initial concentration (0 h) of 12 to 6 mM (24 h), but the pH remained as pH of 7.2. A glucose concentration after 24 h of ≤3 mM indicated excessive glucose consumption. Prior to the measurement of the pH, the chamber slides were transferred into ambient air for 1 h to allow CO2 to evaporate. A pH drop of 0.5 units in the toxin-exposed well compared to the vehicle only was considered proof of acidosis. Mitochondrial depolarization (ΔΨm assay) was read by a fluorescence microscope after 26 h of exposure to the toxicants from the monolayers double stained with the membrane potential-responsive fluorogenic dye JC-1 and with propidium iodide to assess the relaxing of the plasma membrane permeability barrier, similar to what was reported previously for sperm cells (27)."}}, "data": [{"smiles": "C/C1=C\\[C@@H](C)C/C=C/[C@H]2[C@@H]3O[C@]3(C)[C@@H](C)[C@H]3[C@H](Cc4c[nH]c5ccccc45)NC(=O)[C@]32C(=O)/C=C/C(=O)[C@@H]1O", "note": "[Chaetoglobosin A, chaetoglobosin A]", "values": [{"measurement": "CC50", "setting": "resting boar spermatozoa [1]", "result": "> 20", "unit": "µg/mL"}, {"measurement": "EC50", "setting": "resting boar spermatozoa [2]; Spermatozoa, 48 h, read-out: EC50 Sublethal Toxicity Depletion of ΔΨm 2 days, resting boar sperm, JC-1, 2 days", "result": "3 to 4", "unit": "µg/mL"}, {"measurement": "EC50 Sublethal Toxicity Depletion of ΔΨm 2 days", "setting": "resting boar spermatozoa [2]; resting boar sperm, JC-1, 2 days", "result": 2, "unit": "µg/mL"}, {"measurement": "EC50 Sublethal Toxicity BSMIR 2 days", "setting": "resting boar spermatozoa [3]", "result": 1, "unit": "µg/mL"}, {"measurement": "EC50 Sublethal Toxicity Acceleration of glycolysis 1 day", "setting": "resting PK-15 cells; PK-15, 1 day", "result": "None"}, {"measurement": "EC50 Sublethal Toxicity Acidosis 2 days", "setting": "resting PK-15 cells; PK-15, 2 days", "result": "None"}]}]}
